Data as given in patent US6399310B1, “Methods for improving the therapeutic response of humans having major depression and carrying the gene for apolipoprotein E4” (Akzo Nobel N.V., priority 2001, dated 2002).

What was measured:
Assay type in all cases: in vivo, human
[1] = system: patients 65 years of age and older with major depression; assay: Hamilton Depression Rating Scale (HDRS-17 / HDRS-21) in 8-week double-blind comparison of paroxetine and mirtazapine
Excerpt: Hamilton Depression Rating Scale (HDRS; 17 and 21 item versions of a structured interview) (Hamilton, M., J. Neurol. Neurosurg. Psychiatr. 23:56-62, 1960; Hamilton, M., Br. J. Soc. Clin. Psychol. 6:278-296, 1967). […] In other words, a lower rating in the HDRS scale signifies less depression. In contrast, HDRS remitters, which are those patients showing the least depression, are defined as subjects who have an HDRS-17 score of less than 7 at a post-baseline visit.
(§1) All statistical analyses were performed using the SAS software package (available from SAS Institute). For clinical measures of depression (HDRS-21, HDRS-17, GDS, and CGI), analyses of covariance were performed with baseline values as the covariate, and apoE genotype (ε4 allele carrier vs. non-carrier) and medication (mirtazapine, paroxetine) as the predictors. For remitter and responder analyses of clinical measures of depression, Cochran-Mantel-Haenszel statistics were used. For comparison of medication and genotype groups on baseline demographic measures, two-way analyses of variance were used.

[2] = system: patients 65 years of age and older with major depression; assay: Clinical Global Impression Scale (CGI) in 8-week double-blind comparison; conditions: day 14
Excerpt: Clinical Global Impression Scale (CGI) (Guy, W., ECDEU Assessment Manual for Psychopharmacology, DHEW Publication No. (ADM) 76-338, rev. 1976). The CGI scale is a global 7-point rating of the severity of the illness taking into account the preceding week (CGI-Severity) and a global 7-point rating of the clinical status of the subject since baseline (CGI-Change). A responder is defined as being “Much Improved” or “Very Much Improved” —having a CGI score of at least 2 according to CGI-Change. Thus, a higher CGI-Severity score corresponds to more severe depression whereas a higher CGI-Change score corresponds to lessened depression, or an improvement in alleviating the symptoms of depression.
as §1

[3] = system: patients 65 years of age and older with major depression; assay: Geriatric Depression Scale (GDS) in 8-week double-blind comparison
Experimental: Geriatric Depression Scale (GDS) (Yesavage, J. A. et al., J. Psychiatr. Res. 17:37-49, 1983), a self-rating scale developed specifically for rating depression in the elderly. In the GDS, a lower rating signifies less depression. GDS 50% responders are defined as subjects with a decrease on a post-baseline assessment of at least 50% as compared to baseline.
as §1

[4] = day 14, Caucasian subjects, p=0.006

## Fc1ccc([C@@H]2CCNC[C@H]2COc2ccc3c(c2)OCO3)cc1 [paroxetine]
[1]; day 14, Caucasian subjects
  HDRS scores, ε4 carriers compared with noncarriers: lees improvement
[2]; Caucasian subjects
  CGI scores, ε4 carriers compared with noncarriers: no differences
[3]; day 14, full cohort
  GDS scores, effect of ε4 allele: no significant difference
[3]; day 28, full cohort
  50% reduction in GDS score, ε4 carriers compared with noncarriers: no effect of apoE genotype

## CN1CCN2c3ncccc3Cc3ccccc3C2C1 (stereo not shown) [mirtazapine, 1,2,3,4,10,14b-hexahydro-2-methylpyrazino[2,1-a]pyrido[2,3-c]benzazepine]
[1]; day 7, full cohort
  HDRS-17 scores, mirtazapine-treated compared with paroxetine-treated patients: significantly greater improvement
[1]; day 14, Caucasian subjects
  HDRS scores, ε4 carriers compared with noncarriers: greater improvement
[1]; [4]
  mean HDRS-17 scores, mirtazapine compared with paroxetine: significantly lower
  mean HDRS-21 scores, mirtazapine compared with paroxetine: significantly lower
[1]; day 14, full cohort
  HDRS-17 scores, mirtazapine-treated compared with paroxetine-treated patients: Significantly greater improvement
  HDRS-21 scores, mirtazapine-treated compared with paroxetine-treated patients: Significantly greater improvement
[1]; day 14, full cohort, p=0.049
  HDRS-17 50% responders, ε4 carriers compared with non-ε4 carriers: significantly more
[2]; Caucasian subjects
  CGI scores, ε4 carriers compared with noncarriers: significantly better
[2]; Caucasian subjects, p=0.037
  CGI scores, mirtazapine treated compared with paroxetine treated subjects: significantly better
[2]; full cohort
  CGI scores, mirtazapine-treated compared with paroxetine-treated patients: Significantly greater improvement
[3]; day 14, Caucasian subjects
  GDS scores, ε4 carriers compared with noncarriers: significantly lower
[3]; day 14, full cohort
  GDS scores, effect of ε4 allele: large decrease in GDS scores
